According to patent US12168763B2, “Microorganisms and methods for reducing bacterial contamination” (Melio Peptide Systems Inc., priority 2020, dated 2024):

System: L. fermentum NCCB 46038
Assay: Soft-agar overlay assay of S. cerevisiae BY4742 secreting persulcatusin variants from pHVXU plasmids
Conditions: for Change in activity: alanine scanning of persulcatusin, relative to wild-type, soft-agar overlay; for Increase in Activity: random mutagenesis clones of persulcatusin, increase of growth inhibition zones

Substance	Change in activity	Increase in Activity
C4A: persulcatusin (SEQ ID NO: 1) alanine-scan variant C4A (GFGAPFNQGACHRHCRSIGRRGGYCAGLFKQTCTCYSR; listed as Ixodes persulcatus) [Mutation C4A]	−	
C11A: persulcatusin (SEQ ID NO: 1) alanine-scan variant C11A (GFGCPFNQGAAHRHCRSIGRRGGYCAGLFKQTCTCYSR; listed as Ixodes persulcatus) [Mutation C11A]	−	
C15A: persulcatusin (SEQ ID NO: 1) alanine-scan variant C15A (GFGCPFNQGACHRHARSIGRRGGYCAGLFKQTCTCYSR; listed as Ixodes persulcatus) [Mutation C15A]	−	
C25A: persulcatusin (SEQ ID NO: 1) alanine-scan variant C25A (GFGCPFNQGACHRHCRSIGRRGGYAAGLFKQTCTCYSR; listed as Ixodes persulcatus) [Mutation C25A]	−	
C33A: persulcatusin (SEQ ID NO: 1) alanine-scan variant C33A (GFGCPFNQGACHRHCRSIGRRGGYCAGLFKQTATCYSR; listed as Ixodes persulcatus) [Mutation C33A]	−	
C35A: persulcatusin (SEQ ID NO: 1) alanine-scan variant C35A (GFGCPFNQGACHRHCRSIGRRGGYCAGLFKQTCTAYSR; listed as Ixodes persulcatus) [Mutation C35A]	−	
Engineered persulcatusin with [Mutation F6A, Engineered persulcatusin with [F6A]]	+	
Engineered persulcatusin with [Mutation F29A, Engineered persulcatusin with [F29A]]	+	
Engineered persulcatusin with [Mutation L28A, Engineered persulcatusin with [L28A]]	+	
Engineered persulcatusin with [Mutation R13A, Engineered persulcatusin with [R13A]]	+	
Engineered persulcatusin with [Mutation R16A, Engineered persulcatusin with [R16A]]	+	
Engineered persulcatusin with [Mutation R20A, Engineered persulcatusin with [R20A]]	+	
Engineered persulcatusin with [Mutation R21A, Engineered persulcatusin with [R21A]]	+	
Engineered persulcatusin with [Mutation R38A, Engineered persulcatusin with [R38A]]	+	
Engineered persulcatusin with [Mutation S7-140-1, Engineered persulcatusin with [R13S/I18N]]		+
Engineered persulcatusin with [Mutation S7-140-2, Engineered persulcatusin with [R13S]]		+
Engineered persulcatusin with [Mutation S7-140-3, Engineered persulcatusin with [R20S/R21G]]		+
Engineered persulcatusin with [Mutation S7-140-7, Engineered persulcatusin with [R16G/F29V]]		+
Engineered persulcatusin with [Mutation S7-140-8, Engineered persulcatusin with [R21G]]		+
Engineered persulcatusin with [Mutation S7-140-9, Engineered persulcatusin with [A26D]]		+
Engineered persulcatusin with [Mutation S7-140-10, Engineered persulcatusin with [R13S/R21G]]		+
Engineered persulcatusin with [Mutation S7-140-18, Engineered persulcatusin with [N7D/R16S]]		+
Engineered persulcatusin with [Mutation S7-140-34, Engineered persulcatusin with [R13S/R20T]]		++
Engineered persulcatusin with [Mutation S7-140-42, Engineered persulcatusin with [N7D/F29L]]		++

Substance	Change in activity	Increase in Activity
Engineered persulcatusin with [Mutation S7-144-4, Engineered persulcatusin with [G9D/R20S]]		++
Engineered persulcatusin with [Mutation S7-144-11, Engineered persulcatusin with [R16S/R20S]]		++
Engineered persulcatusin with [Mutation S7-144-43, Engineered persulcatusin with [R13S/L28M]]		+
Engineered persulcatusin with [Mutation S7-144-59, Engineered persulcatusin with [R13S/R16K]]		+
Engineered persulcatusin with [Mutation S7-144-75, Engineered persulcatusin with [R13S/A26D]]		++
Engineered persulcatusin with [Mutation S7-156-22, Engineered persulcatusin with [G9D/I18F/F29L]]		+
Engineered persulcatusin with [Mutation S7-156-36, Engineered persulcatusin with [F6S/R13S/R16K/I18V]]		++
Engineered persulcatusin with [Mutation S7-176-3-1, Engineered persulcatusin with [R13S/R21S]]		++
Engineered persulcatusin with [Mutation S7-176-4-1, Engineered persulcatusin with [F6V/R13S/A26D]]		++
Engineered persulcatusin with [Mutation S7-176-5-1, Engineered persulcatusin with [F6L/G9D/R20K]]		++
Engineered persulcatusin with [Mutation S7-192-4, Engineered persulcatusin with [N7D/H14F/R16S]]		++
Engineered persulcatusin with [Mutation S7-192-7, Engineered persulcatusin with [G9D/H14Q]]		++
Engineered persulcatusin with [Mutation S7-192-22, Engineered persulcatusin with [F6L/N7D/H14Q]]		++
Engineered persulcatusin with [Mutation S7-192-26, Engineered persulcatusin with [F6L/G9D/H14Q]]		+++
Engineered persulcatusin with [Mutation S-176-2-1, Engineered persulcatusin with [F6V/R13S]]		++
F2A: persulcatusin (SEQ ID NO: 1) alanine-scan variant F2A (GAGCPFNQGACHRHCRSIGRRGGYCAGLFKQTCTCYSR; listed as Ixodes persulcatus) [Mutation F2A]	−	
G1A: persulcatusin (SEQ ID NO: 1) alanine-scan variant G1A (AFGCPFNQGACHRHCRSIGRRGGYCAGLFKQTCTCYSR; listed as Ixodes persulcatus) [Mutation G1A]	−	
G22A: persulcatusin (SEQ ID NO: 1) alanine-scan variant G22A (GFGCPFNQGACHRHCRSIGRRAGYCAGLFKQTCTCYSR; listed as Ixodes persulcatus) [Mutation G22A]	−	
G23A: persulcatusin (SEQ ID NO: 1) alanine-scan variant G23A (GFGCPFNQGACHRHCRSIGRRGAYCAGLFKQTCTCYSR; listed as Ixodes persulcatus) [Mutation G23A]	−	
G27A: persulcatusin (SEQ ID NO: 1) alanine-scan variant G27A (GFGCPFNQGACHRHCRSIGRRGGYCAALFKQTCTCYSR; listed as Ixodes persulcatus) [Mutation G27A]	−	
H12A: persulcatusin (SEQ ID NO: 1) alanine-scan variant H12A (GFGCPFNQGACARHCRSIGRRGGYCAGLFKQTCTCYSR; listed as Ixodes persulcatus) [Mutation H12A]	−	
H14A: persulcatusin (SEQ ID NO: 1) alanine-scan variant H14A (GFGCPFNQGACHRACRSIGRRGGYCAGLFKQTCTCYSR; listed as Ixodes persulcatus) [Mutation H14A]	−	
K30A: persulcatusin (SEQ ID NO: 1) alanine-scan variant K30A (GFGCPFNQGACHRHCRSIGRRGGYCAGLFAQTCTCYSR; listed as Ixodes persulcatus) [Mutation K30A]	−	
N7A: persulcatusin (SEQ ID NO: 1) alanine-scan variant N7A (GFGCPFAQGACHRHCRSIGRRGGYCAGLFKQTCTCYSR; listed as Ixodes persulcatus) [Mutation N7A]	−	
